Experiments:
[1] = molecular target: T1, nvTRPM2 (Nematostella vectensis, UniProt A7T1N0, E1443I/F1444L)
T1 construct: gene TRPM2

[2] = molecular target: T2, nvTRPM2 (Nematostella vectensis, UniProt A7T1N0, E1446K/E1447K)
T2 construct: gene TRPM2
T2 sequence (A7T1N0 whole entry E1446K/E1447K): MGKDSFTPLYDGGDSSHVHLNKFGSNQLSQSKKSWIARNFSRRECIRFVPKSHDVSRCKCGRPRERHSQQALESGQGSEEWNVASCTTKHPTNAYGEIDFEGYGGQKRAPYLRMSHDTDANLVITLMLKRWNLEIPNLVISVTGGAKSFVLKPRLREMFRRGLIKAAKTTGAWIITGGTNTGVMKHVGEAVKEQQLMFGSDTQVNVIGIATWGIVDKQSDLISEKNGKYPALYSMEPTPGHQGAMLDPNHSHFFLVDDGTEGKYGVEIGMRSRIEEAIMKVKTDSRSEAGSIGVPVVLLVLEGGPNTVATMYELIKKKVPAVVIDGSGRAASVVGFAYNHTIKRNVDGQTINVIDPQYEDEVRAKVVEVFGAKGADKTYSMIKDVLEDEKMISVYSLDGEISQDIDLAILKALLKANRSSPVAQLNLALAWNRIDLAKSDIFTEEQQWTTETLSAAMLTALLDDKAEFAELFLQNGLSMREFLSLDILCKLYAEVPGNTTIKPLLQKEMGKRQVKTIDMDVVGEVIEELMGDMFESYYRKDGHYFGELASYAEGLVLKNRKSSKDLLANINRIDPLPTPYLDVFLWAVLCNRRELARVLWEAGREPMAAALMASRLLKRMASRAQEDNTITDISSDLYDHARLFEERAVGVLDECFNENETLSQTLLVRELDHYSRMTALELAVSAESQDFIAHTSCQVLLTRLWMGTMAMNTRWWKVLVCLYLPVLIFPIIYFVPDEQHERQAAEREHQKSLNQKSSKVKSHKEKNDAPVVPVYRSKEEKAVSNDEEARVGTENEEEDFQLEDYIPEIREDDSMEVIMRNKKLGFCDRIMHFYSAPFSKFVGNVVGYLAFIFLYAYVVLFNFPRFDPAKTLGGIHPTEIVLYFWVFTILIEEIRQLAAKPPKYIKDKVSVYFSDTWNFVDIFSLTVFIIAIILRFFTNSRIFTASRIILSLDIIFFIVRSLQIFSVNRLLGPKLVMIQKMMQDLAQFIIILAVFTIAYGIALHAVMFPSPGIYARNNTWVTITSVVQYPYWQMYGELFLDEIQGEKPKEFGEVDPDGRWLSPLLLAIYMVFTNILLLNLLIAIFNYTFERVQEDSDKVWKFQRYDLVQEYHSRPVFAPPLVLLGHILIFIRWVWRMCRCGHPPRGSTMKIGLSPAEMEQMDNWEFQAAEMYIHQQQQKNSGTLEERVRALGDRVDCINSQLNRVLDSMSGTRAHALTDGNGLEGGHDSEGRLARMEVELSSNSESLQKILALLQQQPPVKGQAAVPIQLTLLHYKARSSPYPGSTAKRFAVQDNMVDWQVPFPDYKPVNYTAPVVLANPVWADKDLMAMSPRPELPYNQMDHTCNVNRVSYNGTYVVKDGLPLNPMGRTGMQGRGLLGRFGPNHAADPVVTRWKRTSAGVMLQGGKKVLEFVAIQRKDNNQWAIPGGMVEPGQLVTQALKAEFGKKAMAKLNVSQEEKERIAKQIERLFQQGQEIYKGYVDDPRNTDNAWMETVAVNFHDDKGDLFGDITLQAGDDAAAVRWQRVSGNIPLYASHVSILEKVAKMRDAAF

T1 sequence (A7T1N0 whole entry E1443I/F1444L): as the sequence (A7T1N0 whole entry E1446K/E1447K) above, with E1443I, F1444L, K1446E, K1447E counted along it

Nc1ncnc2c1ncn2[C@@H]1O[C@H](COP(=O)(O)OP(=O)(O)OC[C@H]2OC(O)[C@H](O)[C@@H]2O)[C@@H](O)[C@H]1O (some centres unmarked) [ADPR]
EC50 [1]: ~2000 nM | EC50 [2]: ~2000 nM
